Data on 38 compounds can be found in patent US11053253B2, “Macrocyclic compounds for treatment of medical disorders” (Achillion Pharmaceuticals, Inc., priority 2017, dated 2021).

The structures appear in SMILES notation.

Human Factor D, sequence (P00746 26-253): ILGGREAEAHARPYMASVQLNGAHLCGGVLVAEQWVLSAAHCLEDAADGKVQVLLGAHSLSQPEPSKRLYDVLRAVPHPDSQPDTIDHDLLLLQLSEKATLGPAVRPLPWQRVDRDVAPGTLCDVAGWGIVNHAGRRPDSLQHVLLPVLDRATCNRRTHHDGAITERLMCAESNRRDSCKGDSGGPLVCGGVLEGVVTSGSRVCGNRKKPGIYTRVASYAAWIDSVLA

For this experiment, the target named is Human Factor D (Homo sapiens (Human), UniProt P00746). As to the kind of experiment: Human Factor D Assay. It is filed as biochemical. As to conditions: Human Factor D 80 nM, substrate Z-L-Lys-SBzl, DTNB, A405; read-out: IC50 (Stars). Summed up:
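Serum-purified enzyme (80 nM final) was preincubated with compound 5 min at room temperature in 50 mM Tris, 1M NaCl, pH 7.5. Z-L-Lys-SBzl and DTNB ([…] each, final) were added and A405 followed every 30 s for 30 min; IC50 from nonlinear regression of reaction rates.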
With `CC(=O)c1nn(CC(=O)N2[C@H]3C[C@@]4(CCCCCCCOCc5ccc(Br)nc5NC3=O)C[C@@H]24)c2cnc(-c3cnc(C)nc3)cc12` [Compound T-88], the IC50 is less than 1000 nM.

In the case of `CC(=O)c1nn2c3cc(c(-c4cnc(C)nc4)cc13)OCCCCCCCCCC[C@@]13C[C@@H](C(=O)Nc4nc(Br)ccc4C)N(C(=O)C2)[C@@H]1C3` [Compound T-99], the IC50 is less than 1000 nM. The figure for `CC(=O)c1nn2c3cc(c(-c4cnc(C)nc4)cc13)OCCCCCCCCC[C@@]13C[C@@H](C(=O)Nc4nc(Br)ccc4C)N(C(=O)C2)[C@@H]1C3` [Compound T-100] is less than 1000 nM; for `CC(=O)c1nn(CC(=O)N2[C@H]3C[C@]4(C[C@@H]24)CN(C)CCCCCCCc2ccc(Br)nc2NC3=O)c2ccc(-c3cnc(C)nc3)cc12` [Compound T-110] it is less than 1000 nM; for `CC(=O)c1nn2c3c(cc(-c4cnc(C)nc4)cc13)CCCCCCCCCOC[C@@]13C[C@@H](C(=O)Nc4nc(Br)ccc4C)N(C(=O)C2)[C@@H]1C3` [Compound T-24, (41R,43S,45S)-13-acetyl-N-(6-bromo-3-methylpyridin-2-yl)-15-(2-methylpyrimidin-5-yl)-3-oxo-11H-6-oxa-42-aza-1(1,7)-indazola-4(2,5)-bicyclo[3.1.0]hexanacyclopentadecaphane-43-carboxamide] it is less than 1000 nM.

For `Cc1ncc(-c2cc3c4c(c2)c(C#N)nn4CC(=O)N2[C@H](C(=O)Nc4nc(C(F)(F)F)ccc4C)C[C@@]4(COCC=CCCC3)C[C@@H]24)cn1` [Compound T-154], the IC50 is less than 1000 nM. In the case of `CC(=O)c1nn2c3c(cc(-c4cnc(C)nc4)cc13)CCCCCCC(=O)NC[C@@]13C[C@@H](C(=O)N[C@@H](C)c4ccccc4)N(C(=O)C2)[C@@H]1C3` [Compound T-176], the IC50 was less than 1000 nM. The figure for `CC(=O)c1nn2c3c(nc(-c4cnc(C)nc4)cc13)CCCCCCCOC[C@@]13C[C@@H](C(=O)Nc4nc(C(F)(F)F)ccc4C)N(C(=O)C2)[C@@H]1C3` [Compound T-163] is less than 1000 nM. With `CC(=O)c1nn2c3cc(c(-c4cnc(C)nc4)cc13)OCCC/C=C\COC[C@@]13C[C@@H](C(=O)Nc4nc(Br)ccc4C)N(C(=O)C2)[C@@H]1C3` [Compound T-80], the IC50 was less than 1000 nM.

Take `CC(=O)c1nn2c3c(cc(-c4cnc(C)nc4)cc13)CCCCNC(=O)NC[C@@]13C[C@@H](C(=O)Nc4nc(C(F)(F)F)ccc4C)N(C(=O)C2)[C@@H]1C3` [Compound T-237]: the IC50 was less than 1000 nM. With `CC(=O)c1nn(CC(=O)N2[C@H]3C[C@@]4(COCC=CCOCc5ccc(Br)nc5NC3=O)C[C@@H]24)c2ccc(-c3cnc(C)nc3)cc12` [Compound T-3, (41R,43S,45S)-42-(2-(3-acetyl-5-(2-methylpyrimidin-5-yl)-1H-indazol-1-yl)acetyl)-16-bromo-6,11-dioxa-42,2-diaza-1(2,3)-pyridina-4(3,5)-bicyclo[3.1.0]hexanacyclododecaphan-8-en-3-one] the figure was less than 1000 nM. The figure for `CC(=O)c1nn(CC(=O)N2[C@H]3C[C@]4(C[C@@H]24)Cn2ccc(n2)/C=C\COCc2ccc(Br)nc2NC3=O)c2ccc(-c3cnc(C)nc3)cc12` [Compound T-69] is less than 1000 nM. The figure for `CC(=O)c1nn2c3c(cc(-c4cnc(C)nc4)cc13)CCCCC[C@H](C)C(=O)N(C)C[C@@]13C[C@@H](C(=O)Nc4nc(C(F)(F)F)ccc4C)N(C(=O)C2)[C@@H]1C3` [Compound T-244] is less than 1000 nM; for `CC(=O)c1nn(CC(=O)N2[C@H]3C[C@]4(C[C@@H]24)CN(C)CCCCCCc2ccc(Br)nc2NC3=O)c2c(C)cc(-c3cnc(C)nc3)cc12` [Compound T-72] it is less than 1000 nM; for `CC(=O)c1nn2c3c(cc(-c4cnc(C)nc4)cc13)CCCCCCC(=O)NC[C@@]13C[C@@H](C(=O)NC[Si](C)(C)C)N(C(=O)C2)[C@@H]1C3` [Compound T-196] it is 1000 to 10000 nM.

For the compound `CC(=O)c1nn2c3c(cc(-c4cnc(C)nc4)cc13)C(O)C(O)CCCCCN(C)C[C@@]13C[C@@H](C(=O)Nc4nc(Br)ccc4C)N(C(=O)C2)[C@@H]1C3` (some centres unmarked) [Compound T-121], the IC50 is less than 1000 nM. Consider `CC(=O)c1nn(CC(=O)N2[C@H]3C[C@@]4(CCCCCCCOCc5ccc(Br)nc5NC3=O)C[C@@H]24)c2c(CF)cc(-c3cnc(C)nc3)cc12` [Compound T-87], for which the IC50 was less than 1000 nM.

Take `CC(=O)c1nn2c3c(cc(-c4cnc(C)nc4)cc13)CC=CCC[C@H](C)C(=O)N(C)C[C@@]13C[C@@H](C(=O)Nc4nc(C(F)(F)F)ccc4C)N(C(=O)C2)[C@@H]1C3` [Compound T-243]: the IC50 is less than 1000 nM. For the compound `CC(=O)c1nn2c3c(cc(-c4cnc(C)nc4)cc13)CCCCCCC(=O)N(C)C[C@@]13C[C@@H](C(=O)Nc4nc(C(F)(F)F)ccc4C)N(C(=O)C2)[C@@H]1C3` [Compound T-93], the IC50 was less than 1000 nM. With `CC(=O)c1nn2c3c(cc(-c4cnc(C)nc4)cc13)CCCCCCCOC[C@@]13C[C@@H](C(=O)Nc4nc(C(F)(F)F)ccc4C)N(C(=O)C2)[C@@H]1C3` [Compound T-102] the figure was less than 1000 nM. The figure for `CC(=O)c1nn(CC(=O)N2[C@H]3C[C@@]4(COCC=CCOCc5cccnc5NC3=O)C[C@@H]24)c2ccc(-c3cnc(C)nc3)cc12` [Compound T-5, (41R,43S,45S)-42-(2-(3-acetyl-5-(2-methylpyrimidin-5-yl)-1H-indazol-1-yl)acetyl)-6,11-dioxa-42,2-diaza-1(2,3)-pyridina-4(3,5)-bicyclo[3.1.0]hexanacyclododecaphan-8-en-3-one] is less than 1000 nM; for `CC(=O)c1nn2c3c(nc(-c4cnc(C)nc4)cc13)CCCCCCC(=O)NC[C@@]13C[C@@H](C(=O)Nc4nc(C(F)(F)F)ccc4C)N(C(=O)C2)[C@@H]1C3` [Compound T-132] it is less than 1000 nM. With `CC(=O)c1nn(CC(=O)N2[C@H]3C[C@@]4(CNC(=O)C(C)(C)C=CCOCc5ccc(Br)nc5NC3=O)C[C@@H]24)c2cnc(-c3cnc(C)nc3)cc12` [Compound T-112] the figure was less than 1000 nM; with `CC(=O)c1nn2c3c(cc(-c4cnc(C)nc4)cc13)CCCCCCC(=O)NC[C@@]1(F)C[C@@H](C(=O)Nc3nc(Br)ccc3C)N(C1)C(=O)C2` [Compound T-175], less than 1000 nM; with `CC(=O)c1nn(CC(=O)N2C3CC34COCC=CCOCc3ccc(Br)nc3NC(=O)[C@@H]2C4)c2ccc(-c3cnc(C)nc3)cc12` (stereo partly drawn) [Compound T-1, (43S)-44-(2-(3-acetyl-5-(2-methylpyrimidin-5-yl)-1H-indazol-1-yl)acetyl)-16-bromo-6,11-dioxa-44,2-diaza-1(2,3)-pyridina-4(3,1)-bicyclo[3.1.0]hexanacyclododecaphan-8-en-3-one], less than 1000 nM. Turning to `CC(=O)c1nn2c3c(cc(-c4cnc(C)nc4)cc13)CC=CCCCC(=O)NC[C@@]13C[C@@H](C(=O)Nc4nc(Br)ccc4C4CC4)N(C(=O)C2)[C@@H]1C3` [Compound T-211], the IC50 was less than 1000 nM. With `CC(=O)c1nn(CC(=O)N2[C@H]3C[C@@]4(COCC=CCOCc5ccc(Br)nc5NC3=O)C[C@@H]24)c2ccccc12` [Compound T-10, (41R,43S,45S)-42-(2-(3-acetyl-1H-indazol-1-yl)acetyl)-16-bromo-6,11-dioxa-42,2-diaza-1(2,3)-pyridina-4(3,5)-bicyclo[3.1.0]hexanacyclododecaphan-8-en-3-one] the figure was less than 1000 nM; with `CC(=O)c1nn2c3c(cc(-c4cnc(C)nc4)cc13)CCCCCCCN(C)C[C@@]13C[C@@H](C(=O)Nc4nc(Br)ccc4C)N(C(=O)C2)[C@@H]1C3` [Compound T-122], 1000 to 10000 nM.

Consider `CC(=O)c1nn2c3c(cc(-c4cnc(C)nc4)cc13)CCCCCCC(=O)NC[C@@]13C[C@@H](C(=O)NCC(C)(C)C)N(C(=O)C2)[C@@H]1C3` [Compound T-201], for which the IC50 was less than 1000 nM. With `CC(=O)c1nn(CC(=O)N2C[C@@]3(F)CNC(=O)C(C)(C)CC=CCOCc4ccc(Br)nc4NC(=O)[C@@H]2C3)c2ccc(-c3cnc(C)nc3)cc12` [Compound T-172] the figure was less than 1000 nM; with `CC(=O)N[C@H]1CC=CCOCc2ccc(Br)nc2NC(=O)[C@@H]2C[C@@]3(CNC1=O)C[C@H]3N2C(=O)Cn1nc(C(C)=O)c2cc(-c3cnc(C)nc3)ccc21` [Compound T-22, N-((41R,43S,45R,8S)-42-(2-(3-acetyl-5-(2-methylpyrimidin-5-yl)-1H-indazol-1-yl)acetyl)-16-bromo-3,7-dioxo-13-oxa-42,2,6-triaza-1(2,3)-pyridina-4(3,5)-bicyclo[3.1.0]hexanacyclotetradecaphan-10-en-8-yl)acetamide], less than 1000 nM.

Consider `CC(=O)c1nn(CC(=O)N2[C@H]3C[C@]4(C[C@@H]24)CN(C)CCCCC=CCc2ccc(Br)nc2NC3=O)c2ccc(-c3cnc(C)nc3)cc12` [Compound T-64], for which the IC50 was less than 1000 nM. For the compound `CCCCCNC(=O)[C@@H]1C[C@]23CNC(=O)CCCCCCc4cc(-c5cnc(C)nc5)cc5c(C(C)=O)nn(c45)CC(=O)N1[C@@H]2C3` [Compound T-200], the IC50 was less than 1000 nM.

`CC(=O)c1nn2c3c(cc(-c4cnc(C)nc4)cc13)CCCCCCC(=O)NC[C@@]13C[C@@H](C(=O)Nc4cc(F)cc(Br)n4)N(C(=O)C2)[C@@H]1C3` [Compound T-90]: the IC50 was less than 1000 nM.

Turning to `CC(=O)c1nn2c3c(cc(-c4cnc(C)nc4)cc13)CC=CCCC(C)(C)C(=O)NC[C@@]13C[C@@H](C(=O)Nc4ccn(CC(F)(F)F)n4)N(C(=O)C2)[C@@H]1C3` [Compound T-184], the IC50 was less than 1000 nM. With `CC(=O)c1nn(CC(=O)N2[C@H]3C[C@@]4(Cc5nc(no5)C=CCOCc5ccc(Br)nc5NC3=O)C[C@@H]24)c2c(C)cc(-c3cnc(C)nc3)cc12` [Compound T-113] the figure was less than 1000 nM; with `CC(=O)c1nn2c3c(cc(-c4cnc(C)nc4)cc13)CCCCCC(C)(C)C(=O)N(C)C[C@@]13C[C@@H](C(=O)Nc4cccc(C(F)(F)F)n4)N(C(=O)C2)[C@@H]1C3` [Compound T-186], less than 1000 nM. For `CC(=O)c1nn2c3c(cc(-c4cnc(C)nc4)cc13)CC=CCCCC(=O)NC[C@@]13C[C@@H](C(=O)Nc4cc(C)c(F)c(Br)n4)N(C(=O)C2)[C@@H]1C3` [Compound T-217], the IC50 is less than 1000 nM.
